Measurements: the supplement of paper PMC10307832

Compound: C1CC(C2=C(C1)C3=C(N2)C=CC(=C3)Cl)C(=O)N [Selisistat] + Nc1ncn([C@H]2C[C@H](O)[C@@H](CO)O2)c(=O)n1 [Decitabine] (partner 2 µM)
Assay: relative viability (nuclei count vs DMSO), 5 days (fraction); higher = more cells survive
Settings: first compound 0.4 µM
Procedure, shortened: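 For relative viability, nuclei counts in treated wells were divided by those in vehicle wells. Lung cancer cell lines had been pin-tool dosed in 1536-well plates the day after seeding and cultured for 5 days, then fixed and stained in one step (final 0.05% Triton X-100, 1% formaldehyde, 1 ug/ml Hoechst) and imaged at 4×. Doses were one drug alone or a fixed anchor-drug dose plus five library-drug doses (not always all listed) in √10 steps, and values are duplicate-plate medians.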

Cell Line	relative viability
NCI-H522	0.768
NCI-H727	0.851
NCI-H1650	0.545
NCI-H1993	0.647
SW 1573	0.604
NCI-H838	0.557
LCLC-103H	0.782
NCI-H520	0.586
NCI-H2126	0.618
EMC-BAC-2	1.11
NCI-H2085	0.595
HCC-366	0.383
NCI-H1666	0.825
NCI-H596	1.07
LK-2	0.397
NCI-H2087	0.34
NCI-H2342	0.734

Cell Line	relative viability
SK-MES-1	0.397
H3255	0.624
COR-L23	0.596
COR-L 105	0.664
LOU-NH91	0.815
ChaGo-K-1	0.486
NCI-H2170	0.481
NCI-H2405	0.881
HOP-62	0.22
A549	0.257
SW 900	0.446
NCI-H1648	0.477
NCI-H1395	0.781
NCI-H1793	0.489
NCI-H1944	0.506
ABC-1	0.881
NCI-H358	0.248

Same assay, conditions: first compound 1.265 µM

Cell Line	relative viability
NCI-H522	0.662
NCI-H727	0.891
NCI-H1650	0.422
NCI-H1993	0.597
SW 1573	0.453
NCI-H838	0.459
LCLC-103H	0.77
NCI-H520	0.512
NCI-H2126	0.574
EMC-BAC-2	0.897
NCI-H2085	0.551
HCC-366	0.31
NCI-H1666	0.699
NCI-H596	1.02
LK-2	0.307
NCI-H2087	0.295
NCI-H2342	0.772

Cell Line	relative viability
SK-MES-1	0.446
H3255	0.628
COR-L23	0.423
COR-L 105	0.731
LOU-NH91	0.795
ChaGo-K-1	0.511
NCI-H2170	0.474
NCI-H2405	0.78
HOP-62	0.211
A549	0.209
SW 900	0.401
NCI-H1648	0.45
NCI-H1395	0.633
NCI-H1793	0.459
NCI-H1944	0.402
ABC-1	1.02
NCI-H358	0.226

Same assay, conditions: first compound 4 µM

Cell Line	relative viability
NCI-H522	0.664
NCI-H727	0.446
NCI-H1650	0.382
SW 1573	0.347
NCI-H838	0.475
LCLC-103H	0.7
NCI-H520	0.536
NCI-H2126	0.579
EMC-BAC-2	0.931
NCI-H2085	0.577
HCC-366	0.33
NCI-H1666	0.692
NCI-H596	0.862
LK-2	0.198
NCI-H2342	0.689
SK-MES-1	0.312
H3255	0.562
COR-L23	0.484
COR-L 105	0.587
LOU-NH91	0.784
ChaGo-K-1	0.482
NCI-H2170	0.458
HOP-62	0.215
A549	0.232
SW 900	0.42
NCI-H1944	0.441
NCI-H358	0.195

Same assay, conditions: first compound 12.65 µM

Cell Line	relative viability
NCI-H522	0.617
NCI-H727	0.898
NCI-H1650	0.481
NCI-H1993	0.655
SW 1573	0.502
NCI-H838	0.45
LCLC-103H	0.729
NCI-H520	0.592
NCI-H2126	0.599
EMC-BAC-2	0.933
NCI-H2085	0.625
HCC-366	0.356
NCI-H1666	0.687
NCI-H596	1.09
LK-2	0.34
NCI-H2087	0.263
NCI-H2342	0.704

Cell Line	relative viability
SK-MES-1	0.325
H3255	0.578
COR-L23	0.436
COR-L 105	0.635
LOU-NH91	0.787
ChaGo-K-1	0.491
NCI-H2170	0.53
NCI-H2405	0.748
HOP-62	0.227
SW 900	0.517
NCI-H1648	0.406
NCI-H1395	0.657
NCI-H1793	0.552
NCI-H1944	0.452
ABC-1	0.86
NCI-H358	0.212

Same assay, conditions: first compound 40 µM

Cell Line	relative viability
NCI-H522	0.647
NCI-H727	0.818
NCI-H1650	0.438
NCI-H1993	0.546
SW 1573	0.459
NCI-H838	0.454
LCLC-103H	0.75
NCI-H520	0.493
NCI-H2126	0.606
EMC-BAC-2	0.683
NCI-H2085	0.588
HCC-366	0.324
NCI-H1666	0.778
NCI-H596	1.07
LK-2	0.294
NCI-H2087	0.234
NCI-H2342	0.874

Cell Line	relative viability
SK-MES-1	0.331
H3255	0.61
COR-L23	0.411
COR-L 105	0.598
LOU-NH91	0.788
ChaGo-K-1	0.502
NCI-H2170	0.47
NCI-H2405	0.697
HOP-62	0.192
A549	0.393
SW 900	0.5
NCI-H1648	0.551
NCI-H1395	0.809
NCI-H1793	0.616
NCI-H1944	0.465
ABC-1	1.08
